Our source for the IC50, viability, T/C and outcome values is PubChem BioAssay AID1845205 (Molecular Pharmacology Branch, DTP, NCI, 2023).

For orientation: pIC50 means −log10 of the IC50, conventionally taken in molar units. Broadly, the viability, T/C is the result in the treated group divided by that in the control group, in per cent.

pIC50: −log10 of the molar value. Values joined by “and” are separate entries in the source; they are usually repeats but may differ in a detail not shown here. Identical values can stand only once. Active and inactive are the calls of the source. Rule for the calls: active = viability on the fitted dose curve at most 10% of control; inactive = the rest. Some results are limits rather than exact numbers.

The assay has as its system MPNST multicellular tumor spheroids, viability % test/control. In words: Anticancer human tumor MPNST cell line growth inhibition.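 For IC50: spheroids exposed to agents for seven days after three days of growth.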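 For viability, T/C: luminescence signal used as surrogate for viable cell amount; spheroids exposed to agents for seven days after three days of growth.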 Conditions: for viability, T/C: stronger effect = lower value. The procedure, abridged: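 Complex spheroids of malignant cells with endothelial cells and mesenchymal stem cells; agents alone or combined, from near clinical Cmax (or 10 microM if unknown) down in half-log steps, 0.25% DMSO final.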

[1] abbreviates: curve of first compound, second compound 30 pM.
Setting [2] is: curve of first compound, second compound 94.9 pM.
Setting [3] is: curve of first compound, second compound 0.0003 µM.
Where [4] appears, read: curve of first compound, second compound 0.000949 µM.
The mark [5] stands for this setting: curve of first compound, second compound 0.003 µM.
The mark [6] stands for this setting: second compound 30 pM, first compound 0.00949 µM.
The mark [7] stands for this setting: second compound 30 pM, first compound 0.03 µM.
Setting [8] is: second compound 30 pM, first compound 0.0949 µM.
Where [9] appears, read: second compound 30 pM, first compound 0.3 µM.
[10] abbreviates: second compound 30 pM, first compound 0.949 µM.
Setting [11] is: second compound 30 pM, first compound 3 µM.
Where [12] appears, read: second compound 94.9 pM, first compound 0.00949 µM.
The mark [13] stands for this setting: second compound 94.9 pM, first compound 0.03 µM.
The mark [14] stands for this setting: second compound 94.9 pM, first compound 0.0949 µM.
[15] abbreviates: second compound 94.9 pM, first compound 0.3 µM.
Where [16] appears, read: second compound 94.9 pM, first compound 0.949 µM.
[17] abbreviates: second compound 94.9 pM, first compound 3 µM.
Setting [18] is: second compound 0.0003 µM, first compound 0.00949 µM.
[19] abbreviates: second compound 0.0003 µM, first compound 0.03 µM.
[20] abbreviates: second compound 0.0003 µM, first compound 0.0949 µM.
The mark [21] stands for this setting: second compound 0.0003 µM, first compound 0.3 µM.
Where [22] appears, read: second compound 0.0003 µM, first compound 0.949 µM.
Setting [23] is: second compound 0.0003 µM, first compound 3 µM.
Setting [24] is: second compound 0.000949 µM, first compound 0.00949 µM.
Where [25] appears, read: second compound 0.000949 µM, first compound 0.03 µM.
Where [26] appears, read: second compound 0.000949 µM, first compound 0.0949 µM.
Where [27] appears, read: second compound 0.000949 µM, first compound 0.3 µM.
[28] abbreviates: second compound 0.000949 µM, first compound 0.949 µM.
[29] abbreviates: second compound 0.000949 µM, first compound 3 µM.
[30] abbreviates: second compound 0.003 µM, first compound 0.00949 µM.
Setting [31] is: second compound 0.003 µM, first compound 0.03 µM.
The mark [32] stands for this setting: second compound 0.003 µM, first compound 0.0949 µM.
[33] abbreviates: second compound 0.003 µM, first compound 0.3 µM.
Setting [34] is: second compound 0.003 µM, first compound 0.949 µM.
[35] abbreviates: second compound 0.003 µM, first compound 3 µM.

As to `Cn1ncnc1[C@H]1c2n[nH]c(=O)c3cc(F)cc(c23)N[C@@H]1c1ccc(F)cc1` + COc1cc2c(cc1O)CCNC21CSC2c3c(OC(C)=O)c(C)c4c(c3C(COC1=O)N1C(O)C3Cc5cc(C)c(OC)c(O)c5C(C21)N3C)OCO4, the pIC50 under setting [1] was 5.82; the negative logarithm of the IC50 (pIC50) under setting [2] was 6.59; the pIC50 under setting [3] was 7.16; the pIC50 under setting [4] is > 8.02; the pIC50 under setting [5] was > 8.02. The viability, T/C was 64.4% under setting [6]; 75.2% under setting [7]; 58.3% under setting [8]; 59.1% under setting [9]; 52.7% under setting [10]; 46% under setting [11]. Further, the viability, T/C under setting [12] is 68.9%; the viability, T/C under setting [13] is 86.8%; the viability, T/C under setting [14] is 67%; the viability, T/C under setting [15] is 49.9%; the viability, T/C under setting [16] is 45.3%; the viability, T/C under setting [17] is 46%. Further, the viability, T/C is 53.1% under setting [18]; 53.6% under setting [19]; 47% under setting [20]; 49% under setting [21]; 43% under setting [22]; 41.9% under setting [23]. The viability, T/C under setting [24] is 51.6%; the viability, T/C under setting [25] was 41.6%; the viability, T/C under setting [26] is 40.9%; the viability, T/C under setting [27] is 44.4%; the viability, T/C under setting [28] was 38%; the viability, T/C under setting [29] was 29.9%. Besides, the viability, T/C was 13.7% under setting [30]; 15.3% under setting [31]; 9.43% under setting [32]; 9.63% under setting [33]; 6.89% under setting [34]; 2.68% under setting [35].

For `COc1cc(C)[nH]c(=O)c1CN1CCc2c(Cl)cc(C(OC)C3COC3)c(Cl)c2C1=O` (stereo unspecified) + Cn1nnc2c(C(N)=O)ncn2c1=O, the pIC50 runs as follows: (curve of first compound, second compound 1 µM) < 5.00; (curve of first compound, second compound 3.16 µM) < 5.00; (curve of first compound, second compound 10 µM) < 5.00; (curve of first compound, second compound 31.6 µM) < 5.00; (curve of first compound, second compound 100 µM) < 5.00. In addition, the viability, T/C by setting is: (second compound 1 µM, first compound 0.0316 µM) 89.9%; (second compound 1 µM, first compound 0.1 µM) 80.4%; (second compound 1 µM, first compound 0.316 µM) 78.7%; (second compound 1 µM, first compound 1 µM) 88.5%; (second compound 1 µM, first compound 3.16 µM) 94.2%; (second compound 1 µM, first compound 10 µM) 107%. For the same compound, the viability, T/C (second compound 3.16 µM, first compound 0.0316 µM) was 87.7%; the viability, T/C (second compound 3.16 µM, first compound 0.1 µM) is 84.4%; the viability, T/C (second compound 3.16 µM, first compound 0.316 µM) is 122%; the viability, T/C (second compound 3.16 µM, first compound 1 µM) was 97.4%; the viability, T/C (second compound 3.16 µM, first compound 3.16 µM) was 150%; the viability, T/C (second compound 3.16 µM, first compound 10 µM) was 95.9%. Further, the viability, T/C runs as follows: (second compound 10 µM, first compound 0.0316 µM) 81.5%; (second compound 10 µM, first compound 0.1 µM) 106%; (second compound 10 µM, first compound 0.316 µM) 101%; (second compound 10 µM, first compound 1 µM) 97.8%; (second compound 10 µM, first compound 3.16 µM) 99.9%; (second compound 10 µM, first compound 10 µM) 92.8%. For the same compound, the viability, T/C runs as follows: (second compound 31.6 µM, first compound 0.0316 µM) 79.1%; (second compound 31.6 µM, first compound 0.1 µM) 74%; (second compound 31.6 µM, first compound 0.316 µM) 92.5%; (second compound 31.6 µM, first compound 1 µM) 81.7%; (second compound 31.6 µM, first compound 3.16 µM) 103%; (second compound 31.6 µM, first compound 10 µM) 82.7%. Also, the viability, T/C runs as follows: (second compound 100 µM, first compound 0.0316 µM) 84%; (second compound 100 µM, first compound 0.1 µM) 82.7%; (second compound 100 µM, first compound 0.316 µM) 70.7%; (second compound 100 µM, first compound 1 µM) 80.6%; (second compound 100 µM, first compound 3.16 µM) 80.7%; (second compound 100 µM, first compound 10 µM) 86.5%.

On to `[2H]c1nc(C)nc([2H])c1-c1cc(NC[C@@H](C)c2cccc3c(C(=O)NC)ccnc23)ncn1`, for which the viability, T/C reads like this: (compound 0.0316 µM) 96.1% and 83.1% and 86.7%; (compound 0.1 µM) 77.8% and 109% and 75.6%; (compound 0.316 µM) 82.6% and 102% and 90.4%; (compound 1 µM) 101% and 103% and 119%; (compound 3.16 µM) 110% and 104% and 71.3%; (compound 10 µM) 101% and 100% and 67.4%. Further, the pIC50 (curve of compound) was < 5.00.

For `COc1ccc([C@@H](O)c2cc(-c3ncnc4cc(N5CCOCC5)ccc34)c(F)cc2Cl)nn1`, the viability, T/C runs as follows: (compound 0.0316 µM) 33.1% and 109% and 92.9%; (compound 0.1 µM) 26% and 94% and 75.6%; (compound 0.316 µM) 21.6% and 87.5% and 78.7%; (compound 1 µM) 14.7% and 50.9%. For the same compound, the result (compound 1 µM) was inactive.

As to `CC1COCCN1c1cc(-c2ccnn2C)c2ccnc(-c3ccn[nH]3)c2n1` (stereo unspecified), the viability, T/C (compound 0.0316 µM) was 54.6% and 70.5% and 65.8%; the viability, T/C (compound 0.1 µM) was 47.8% and 60% and 55.1%; the viability, T/C (compound 0.316 µM) is 37.7% and 46.4% and 41.8%; the viability, T/C (compound 1 µM) was 39.5% and 46.2% and 33.2%; the viability, T/C (compound 3.16 µM) was 28.1% and 34.2% and 28.3%; the viability, T/C (compound 10 µM) is 22.3% and 30.9% and 25%. In addition, for the setting “curve of compound”, the negative logarithm of the IC50 (pIC50) is 7.18 and 6.50 and 6.81.

Consider `CNCc1ccc(-c2cc(-c3nc(-c4ccc(S(=O)(=O)C(C)C)cc4)cnc3N)on2)cc1` + COc1cc2c(cc1O)CCNC21CSC2c3c(OC(C)=O)c(C)c4c(c3C(COC1=O)N1C(O)C3Cc5cc(C)c(OC)c(O)c5C(C21)N3C)OCO4, for which the negative-log IC50 (pIC50) reads like this: under setting [1], 6.55; under setting [2], < 5.52; under setting [3], 7.02; under setting [4], > 8.02; under setting [5], > 8.02. Moreover, the viability, T/C runs as follows: under setting [6], 83.5%; under setting [7], 105%; under setting [8], 63.5%; under setting [9], 54.8%; under setting [10], 47.2%; under setting [11], 45.9%. In addition, the viability, T/C is, setting by setting: under setting [12], 79%; under setting [13], 74%; under setting [14], 70.4%; under setting [15], 55.6%; under setting [16], 49.7%; under setting [17], 53.6%. Also, the viability, T/C reads like this: under setting [18], 68.1%; under setting [19], 70.8%; under setting [20], 50.1%; under setting [21], 42.4%; under setting [22], 46.3%; under setting [23], 46.8%. Also, the viability, T/C is 39% under setting [24]; 39.5% under setting [25]; 38.5% under setting [26]; 36.2% under setting [27]; 46% under setting [28]; 48.6% under setting [29]. In addition, the viability, T/C reads like this: under setting [30], 6.71%; under setting [31], 17.8%; under setting [32], 18.7%; under setting [33], 8.25%; under setting [34], 12.3%; under setting [35], 8.15%.

`Cc1cc(C)c(CNC(=O)c2cc(-c3ccc(CN4CCOCC4)cc3)cc3c2cnn3C2CCCC2)c(=O)[nH]1`: the viability, T/C is 75.2% and 93.7% and 93.8% (compound 0.0316 µM); 119% and 109% and 93.5% (compound 0.1 µM); 90.4% and 118% and 91.3% (compound 0.316 µM); 97.2% and 101% and 92.3% (compound 1 µM); 107% and 114% and 98.7% (compound 3.16 µM); 79.3% and 100% and 107% (compound 10 µM). Besides, where the note is “curve of compound”, the pIC50 was < 5.00.
